Experimental data reported in patent US20120077957A1, “Lactam-Bridged Melanocortin Receptor-Specific Peptides” (PALATIN TECHNOLOGIES, INC., priority 2009, published 2012).
Where two headings read alike, the source gives them in different places. Bridge positions count the residues as written; N and C are the ends. Square brackets hold non-standard residues; d marks the D form. Peptide text beside a SMILES is read from it. * marks the point of attachment. Orn = NCCC[C@H](N)C(=O)O; Bn = c1ccc(C*)cc1

Key:
human MC4-R [1] = biological target: T1, human MC4-R (Homo sapiens, UniProt P32245); assay: Competitive inhibition binding assay with [I125]-NDP-α-MSH or Eu-NDP-α-MSH, membranes of HEK-293 cells expressing recombinant hMC4-R
T1 construct: expressed in transfected cells; host or cells: HEK293 T-REx (tetracycline-regulated, Invitrogen); cell line from Palatin Technologies with license from the University of Michigan
Protocol: A competitive inhibition binding assay was performed using membrane homogenates prepared from HEK-293 cells that express recombinant hMC4-R, hMC3-R, or hMC5-R, and from B-16 mouse melanoma cells (containing endogenous MC1-R). In some instances, HEK-293 cells that express recombinant hMC1-R were employed. In the examples that follow, all MC3-R, MC4-R and MC5-R values are for human recombinant receptors. […] After incubation for 60 minutes at 37° C., the assay mixture was filtered and the membranes washed three times with ice-cold buffer. Filters were dried and counted in a gamma counter for bound radioactivity. […] Maximal specific binding (100%) was defined as the difference in radioactivity (cpm) bound to cell membranes in the absence and presence of 1 μM NDP-α-MSH. […] Ki values for test peptides of the present invention were determined using Graph-Pad Prism® curve-fitting software.
Alternatively, a competitive inhibition binding assay was performed employing Eu-NDP-α-MSH (PerkinElmer Life Sciences catalog No. AD0225) with determination by time-resolved fluorometry (TRF) of the lanthanide chelate. […] After incubation for 90 minutes at 37° C., the reaction was stopped by filtration over AcroWell 96-well filter plates (Pall Life Sciences). The filter plates were washed 4 times with 200 μL of ice-cold phosphate-buffered saline. DELFIA Enhancement solution (PerkinElmer Life Sciences) was added to each well. […] Each assay was conducted in duplicate and mean values were utilized. Ki values were determined by curve-fitting with Graph-Pad Prism® software using a one-site fixed-slope competition binding model.

human MC4-R [2] = biological target: T1, human MC4-R; assay: cAMP functional assay in HEK-293 T-REx cells expressing human MC4-R, induced with doxycycline 0.1 ng/mL (low density); format: cell-based; settings: doxycycline 0.1 ng/mL, averages of all comparable assays; for Emax: HEK293-T-REx, maximal cAMP stimulation, NDP-α-MSH = 100%, read-out: Emax; for EC50: human MC4-R cAMP assay, read-out: Ec50
Description: A HEK293 cell line transfected with human MC4-R (from Palatin Technologies, US, with license from the University of Michigan) was used. The human MC4-R was introduced to HEK293 by using the T-REx™ System, Invitrogen. The T-REx™ System employs a tetracycline-regulated mammalian expression system that uses regulatory elements from the E. coli Tn10-encoded tetracycline (Tet) resistance operon. By use of the T-REx™ System, expression of the gene of interest, the human MC4-R gene, is repressed in the absence of tetracycline or doxycycline and induced in the presence of tetracycline or doxycycline (see T-REx™ System Manual, published by Invitrogen).
Cells were then counted and volume was adjusted to 5×10^4 cells per 200 μL.
The cells were then dispensed into 96-well plates (BD 353916) in 198 μL (about 5×10^4) cells/well and incubated for 10 minutes at 37° C. The compound to be tested was diluted with DMSO to a final concentration of 1 mM. Serial dilution was prepared in polypropylene removable 12-well library tube strips (VWR cat #83009-682). 120 μL of the 1 mM compound stock was pipetted in the second column on the plate.
2 μL of the standard, [Nle^4, D-Phe^7]alpha-Melanocyte Stimulating Hormone (NDP-α-MSH), or compound was added to the 96-well plate using the Janus robotic system. All assay samples were run in duplicate (i.e. each sample was in two low dox and two high dox plates, respectively). The plates were gently shaken and incubated for 15 minutes at 37° C. The reaction was stopped by adding 15 μL of lysis buffer per well and the plates were shakened for 30 minutes at room temperature.
Agonist stimulation of the MC4-R activates adenylate cyclase, which is an enzyme that catalyses the formation 3′,5′-cyclic adenosine monophosphate (cAMP) from adenosine triphosphate (ATP). […] Fluoresence ratios were then calculated as described in the CisBio HTRF kit, with GraphPad Prism software used to plot the change in fluorescence percent values versus cAMP concentration using the variable slope dose response curve and, based on calculated cAMP concentrations, to determine EC50 and Emax values. […]

[3] = human MC4-R, averages of all comparable assays, read-out: Ki

T1 sequence (P32245 whole entry): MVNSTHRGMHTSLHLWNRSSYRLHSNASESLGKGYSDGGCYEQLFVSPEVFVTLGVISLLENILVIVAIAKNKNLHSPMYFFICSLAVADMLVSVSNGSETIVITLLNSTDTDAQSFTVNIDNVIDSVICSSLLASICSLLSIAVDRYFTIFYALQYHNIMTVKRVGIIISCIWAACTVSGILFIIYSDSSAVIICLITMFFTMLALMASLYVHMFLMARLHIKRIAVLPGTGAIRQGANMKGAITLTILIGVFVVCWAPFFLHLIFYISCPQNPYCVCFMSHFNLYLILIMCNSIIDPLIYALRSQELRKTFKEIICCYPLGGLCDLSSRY

Row | SMILES | Ki (human MC4-R [1]; [3]) [nM] | Emax (human MC4-R [2]) [%] | EC50 (human MC4-R [2]) [nM] | Ki (human MC4-R [1]) [nM]
1 | CCCC[C@H](NC(C)=O)C(=O)N[C@H]1CCCNC(=O)CC[C@@H](C(N)=O)NC(=O)[C@H](Cc2c[nH]c3ccccc23)NC(=O)[C@H](CCCNC(=N)N)NC(=O)[C@@H](Cc2ccccc2)NC(=O)[C@H](Cc2c[nH]cn2)NC1=O [No. 36, Ac-Nle-cyclo(Orn-His-D-Phe-Arg-Trp-Glu)-NH2] | 0.2 | 85 | 0.2 | –
2 | CC(=O)N[C@@H](CCCNC(=N)N)C(=O)N[C@H]1CCCNC(=O)CC[C@@H](C(=O)O)NC(=O)[C@H](Cc2c[nH]c3ccccc23)NC(=O)[C@H](CCCNC(=N)N)NC(=O)[C@@H](Cc2ccccc2)NC(=O)[C@H](Cc2c[nH]cn2)NC1=O [No. 37, Ac-Arg-cyclo(Orn-His-D-Phe-Arg-Trp-Glu)-OH] (Ac-R[Orn]H[dF]RWE-OH; lactam 2-7) | 12 | 88 | 0.6 | –
3 | CC(=O)N[C@@H](CCCNC(=N)N)C(=O)N[C@H]1CCCNC(=O)CC[C@@H](C(N)=O)NC(=O)[C@H](Cc2c[nH]c3ccccc23)NC(=O)[C@H](CCCNC(=N)N)NC(=O)[C@@H](Cc2ccccc2)NC(=O)[C@H](Cc2c[nH]cn2)NC1=O [No. 38, Ac-Arg-cyclo(Orn-His-D-Phe-Arg-Trp-Glu)-NH2] (Ac-R[Orn]H[dF]RWE-NH2; lactam 2-7) | 1 | 84 | 1 | –
4 | CC(=O)N[C@@H](CCCCN)C(=O)N[C@H]1CCCNC(=O)CC[C@@H](C(N)=O)NC(=O)[C@H](Cc2c[nH]c3ccccc23)NC(=O)[C@H](CCCNC(=N)N)NC(=O)[C@@H](Cc2ccccc2)NC(=O)[C@H](Cc2c[nH]cn2)NC1=O [No. 40, Ac-Lys-cyclo(Orn-His-D-Phe-Arg-Trp-Glu)-NH2] (Ac-K[Orn]H[dF]RWE-NH2; lactam 2-7) | – | 114 | 0.2 | 3
5 | CC(=O)N[C@@H](CCCNC(=N)N)C(=O)N[C@H]1CCCNC(=O)CC[C@@H](C(N)=O)NC(=O)[C@H](Cc2c[nH]c3ccccc23)NC(=O)[C@H](CCCNC(=N)N)NC(=O)[C@@H](Cc2ccccc2)NC(=O)[C@H](C)NC1=O [No. 41, Ac-Arg-cyclo(Orn-Ala-D-Phe-Arg-Trp-Glu)-NH2] (Ac-R[Orn]A[dF]RWE-NH2; lactam 2-7) | 19 | 52 | 7 | –
6 | CC(=O)N[C@@H](CCCNC(=N)N)C(=O)N[C@H]1CCCNC(=O)CC[C@@H](C(N)=O)NC(=O)[C@H](Cc2c[nH]c3ccccc23)NC(=O)[C@H](CCCNC(=N)N)NC(=O)[C@@H](Cc2ccccc2)NC(=O)[C@H](CCN)NC1=O [No. 43, Ac-Arg-cyclo(Orn-Dab-D-Phe-Arg-Trp-Glu)-NH2] | – | 103 | 0.1 | 3
7 | CC(=O)N[C@@H](CCCNC(=N)N)C(=O)N[C@H]1CCCNC(=O)CC[C@@H](C(N)=O)NC(=O)[C@H](Cc2c[nH]c3ccccc23)NC(=O)[C@H](CCCNC(=N)N)NC(=O)[C@@H](Cc2ccccc2)NC(=O)[C@@H]2CCCN2C1=O [No. 47, Ac-Arg-cyclo(Orn-Pro-D-Phe-Arg-Trp-Glu)-NH2] (Ac-R[Orn]P[dF]RWE-NH2; lactam 2-7) | 5 | 54 | 6 | –
8 | CC(=O)N[C@@H](CCCNC(=N)N)C(=O)N[C@H]1CCCNC(=O)CC[C@@H](C(=O)O)NC(=O)[C@H](Cc2c[nH]c3ccccc23)NC(=O)[C@H](CCCNC(=N)N)NC(=O)[C@@H](Cc2ccccc2)NC(=O)[C@H](COCc2ccccc2)NC1=O [No. 48, Ac-Arg-cyclo(Orn-Ser(Bzl)-D-Phe-Arg-Trp-Glu)-OH] (Ac-R[Orn]S(Bn)[dF]RWE-OH; lactam 2-7) | 5 | 50 | 3 | –
9 | CC(=O)N[C@@H](CCCNC(=N)N)C(=O)N[C@H]1CC(=O)NCCCC[C@@H](C(=O)O)NC(=O)[C@H](Cc2c[nH]c3ccccc23)NC(=O)[C@H](CCCNC(=N)N)NC(=O)[C@@H](Cc2ccccc2)NC(=O)[C@H](CCCN)NC1=O [reference compound] | 18 | 84 | 12 | –
10 | CC(=O)N[C@@H](CCCNC(=N)N)C(=O)N[C@H]1CC(=O)NCCCC[C@@H](C(N)=O)NC(=O)[C@H](Cc2c[nH]c3ccccc23)NC(=O)[C@H](CCCNC(=N)N)NC(=O)[C@@H](Cc2ccccc2)NC(=O)[C@H](CCCN)NC1=O [reference compound] | 7 | 79 | – | –
11 | CC(=O)N[C@@H](CCCNC(=N)N)C(=O)N[C@H]1CC(=O)NCCCC[C@@H](C(N)=O)NC(=O)[C@H](Cc2c[nH]c3ccccc23)NC(=O)[C@H](CCCNC(=N)N)NC(=O)[C@@H](Cc2ccccc2)NC(=O)[C@H](CCS(C)(=O)=O)NC1=O [reference compound] | 7 | 29 | – | –
12 | CC(=O)N[C@@H](CCCNC(=N)N)C(=O)N[C@H]1CC(=O)NCCCC[C@@H](C(N)=O)NC(=O)[C@H](Cc2c[nH]c3ccccc23)NC(=O)[C@H](CCCNC(=N)N)NC(=O)[C@@H](Cc2ccccc2)NC(=O)[C@@H]2C[C@@H](N)CN2C1=O [reference compound] | 5 | 61 | 8 | –
13 | CC(=O)NCCC[C@@H]1NC(=O)[C@@H](NC(=O)[C@H](CCCNC(=N)N)NC(C)=O)CC(=O)NCCCC[C@@H](C(N)=O)NC(=O)[C@H](Cc2c[nH]c3ccccc23)NC(=O)[C@H](CCCNC(=N)N)NC(=O)[C@@H](Cc2ccccc2)NC1=O [reference compound] | 573 | 62 | – | –
14 | CC(=O)N[C@@H](CCCNC(=N)N)C(=O)N[C@H]1CC(=O)NCCCC[C@@H](C(=O)O)NC(=O)[C@H](Cc2c[nH]c3ccccc23)NC(=O)[C@H](CCCNC(=N)N)NC(=O)[C@@H](Cc2ccccc2)NC(=O)[C@H](COCc2ccccc2)NC1=O [reference compound] | 9 | – | 5 | –
15 | CC(=O)NCC[C@@H]1NC(=O)[C@@H](NC(=O)[C@H](CCCNC(=N)N)NC(C)=O)CC(=O)NCCCC[C@@H](C(N)=O)NC(=O)[C@H](Cc2c[nH]c3ccccc23)NC(=O)[C@H](CCCNC(=N)N)NC(=O)[C@@H](Cc2ccccc2)NC1=O [reference compound] | – | 69 | – | 33
16 | CC(=O)N[C@@H](CCCCN)C(=O)N[C@H]1CC(=O)NCCCC[C@@H](C(N)=O)NC(=O)[C@H](Cc2c[nH]c3ccccc23)NC(=O)[C@H](CCCNC(=N)N)NC(=O)[C@@H](Cc2ccccc2)NC(=O)[C@H](Cc2c[nH]cn2)NC1=O [reference compound] (Ac-KDH[dF]RWK-NH2; lactam 2-7) | 9 | 85 | 5 | –
17 | CC(=O)N[C@@H](CCCNC(=N)N)C(=O)N[C@H]1CC(=O)NCCCC[C@@H](C(N)=O)NC(=O)[C@H](Cc2c[nH]c3ccccc23)NC(=O)[C@H](CCCNC(=N)N)NC(=O)[C@@H](Cc2ccccc2)NC(=O)[C@H](C)NC1=O [reference compound] (Ac-RDA[dF]RWK-NH2; lactam 2-7) | 19 | 74 | 37 | –
18 | CC(=O)N[C@@H](CCCNC(=N)N)C(=O)N[C@H]1CC(=O)NCCCC[C@@H](C(N)=O)NC(=O)[C@H](Cc2c[nH]c3ccccc23)NC(=O)[C@H](CCCNC(=N)N)NC(=O)[C@@H](Cc2ccccc2)NC(=O)[C@H](CC(N)=O)NC1=O [reference compound] (Ac-RDN[dF]RWK-NH2; lactam 2-7) | – | 91 | 42 | 32
